Measured values from US20130059783A1, “COMPOSITIONS AND METHODS FOR EXPANDING BFU-E CELLS” (priority 2010, published 2013).

Columns and labels:
BFU-E cells [1] = assay: Serum free erythroid liquid expansion (SFELE) progenitor growth assay of sorted BFU-E cells; assay type: cell-based, mouse
Description: (§1) FIGS. 1A-1F. […] Error bars show one standard deviation. […] Error bars show one standard deviation. […] Shown is the fraction of c-kit+ cells after 72 hours. […] Cell numbers in each clone were estimated under the microscope on Day 8.
(§2) FIGS. 3A-3B. […] The experimental protocol was similar to that used in FIGS. 1A and B except that the CFU-E and BFU-E cells were purer (CD71 and CD24a^20% high and CD71 and CD24a^10% low, respectively). […] (A) Proliferation of sorted CFU-E cells. […] Error bars show one standard deviation. (B) Proliferation of sorted BFU-E cells. […] Error bars show one standard deviation.
FIG. 4. […] Cells were counted from day 4 until the day cell counts dropped.
(A) The total number of cells formed from 1000 BFU-E cells at different time points. […] Standard deviation between four separate biological experiments is shown in parenthesis (n/d=not determined).
(§3) We developed a modified version of the serum free erythroid liquid expansion culture (SFELE) medium described by Dolzning et al. (Dolznig et al., 2006).

CFU-E cells = assay: SFELE progenitor growth assay of sorted CFU-E cells; assay type: cell-based, mouse; details: CD71 and CD24a 20% high cells, 100 nM Dex and/or 333 μM DMOG
Description: as §1, §2, §3

BFU-E cells [2] = assay: CFU-E and BFU-E colony forming assays of BFU-E cells cultured in SFELE medium; assay type: cell-based, mouse; details: for Total colony numbers from 1,000 "BFU-E" cells: CFU-E 1 cluster / Total colony numbers from 1,000 "BFU-E" cells: large BFU-E >20 clusters / Total colony numbers from 1,000 "BFU-E" cells: small BFU-E 5-20 clusters: CD24 and CD71 10% low BFU-E cells, SFELE, 100 nM Dex and/or 333 μM DMOG
Description: Dexamethasone prevents BFU-E cell exhaustion, which allows more CFU-E cells to be formed. […] (A) The total number of cells formed from 1000 BFU-E cells at different time points. […] Standard deviation between four separate biological experiments is shown in parenthesis (n/d=not determined).
At daily intervals colony assays were performed (Table 2). As in the experiment in FIG. 3, for the first three days the total number of cells increased at the same rate in all cultures.
(§4) Colonies were scored after 3 days. […] The number of hemoglobinized early BFU-E and late BFU-E colonies was determined after 8-9 days following staining with 2,7-Diaminofluorene (Sigma Chemical, St. Louis, Mo.).

BFU-E cells [3] = assay: Colony forming assays of sorted BFU-E fractions (Table S2); assay type: cell-based, mouse; details: CD71/CD24a 10% low cells, 100 nM Dex and/or 333 μM DMOG
Excerpt: Separation of BFU-E and CFU-E cells by expression of CD71, CD24a or both CD71 and CD24a. C-kit positive BFU-E and CFU-E cells were sorted from FLEP cells based on expression of CD71, CD24a or both CD71 and CD24a. In all experiments the BFU-E fraction was the subset of c-kit^positive FLEP cells with the 10% lowest expression of CD71 and/or CD24a, while the CFU-E fraction was the subset with 20% highest expression of CD71 and/or CD24a. Sorted BFU-E and CFU-E populations were subjected to colony forming assays under two different conditions. […] The number of CFU-E colonies (±standard deviation) is shown. The sorted “BFU-E” populations mostly formed small CFU-E clusters rather than single CFU-E colonies in these assays. These CFU-E clusters are formed by precursors to CFU-Es and were scored separately as multi-CFU-Es. The number of “multi-CFU-Es” is not shown since these cells likely represent the same cells as those forming small BFU-E colonies.
The potential of the sorted cells to form large BFU-E, small BFU-E, CFU-G/M/Mk, and CFU-GEMM colonies (±standard deviation) was determined by a second assay in methyl cellulose containing 10U Epo, 20 nM IL-3, 20 nM IL-6 and 50 nM SCF per mL, and was scored at day 8-9. […] To determine the effect of DMOG, colony assays of sorted BFU-E (CD71 and CD24a^10% low) cells were also performed in the presence of 333 μM DMOG. In agreement with the finding that DMOG enhances BFU-E self-renewal BFU-E colonies were larger with a more immature appearance in the presence of DMOG and Dex. Therefore, in the presence of DMOG and Dex most BFU-E colonies were scored as “large BFU-Es.”
No GEMM colonies were formed (Table S2).
as §4

[4] = system: Lin-Sca-1-c-kit+ bone marrow progenitor population; assay: SFELE culture of Lin neg, c-kit pos, Sca-1 neg bone marrow cells; assay type: cell-based, mouse; details: for Enhancement of proliferation by DMOG above the effect of Dex: bone marrow cells, 333 μM DMOG
Excerpt: FIGS. 5A-5C. […] Total cell number was counted daily and normalized to the number of cells added to the culture. (n=4). Error bars show one standard deviation.
In the bone marrow BFU-E cells are found in the Lin^neg, c-kit^pos, Sca-1^neg fraction; this cell population contains mostly a mix of lineage restricted progenitor cells of which a minority are BFU-Es (Pronk et al., 2007).

[5] = system: human peripheral blood erythroid progenitors; assay: Erythroblast formation from human mobilized peripheral blood CD34+ cells; assay type: cell-based; details: 100 μM DMOG with 1 nM Dex, human CD34+ derived progenitors
Description: FIG. 6. […] Human mobilized CD34+ cells were first thawed and cultured in serum free medium supplemented with StemSpan® CC100 cytokine mix containing rhSCF, rhFlt-3L, rhIL-3 and rhIL-6 for 5 days. […] Total cell number was counted every other day until cell numbers dropped at day 5+19. More than 95% of cells at the end of the culture have erythroblast morphology (data not shown). […] Error bars show one standard deviation.
An experiment was performed on human hematopoietic progenitor cells from mobilized peripheral blood CD34+ cells that were first cultured 5 days in serum-free medium containing rhSCF, rhFlt-3L, rhIL-3 and rhIL-6. […] Similarly to the murine cultures >95% of cells at the end of the culture are erythroblasts (data not shown).

FIH = FIH (Homo sapiens, UniProt Q9NWT6); details: cited from earlier work
HIF prolyl hydroxylase = details: cited from earlier work
[6] = 333 μM DMOG and/or 100 nM Dex versus no additions
[7] = Day 3 of culture, 100 nM Dex or 333 μM DMOG alone

FIH, sequence (Q9NWT6 whole entry): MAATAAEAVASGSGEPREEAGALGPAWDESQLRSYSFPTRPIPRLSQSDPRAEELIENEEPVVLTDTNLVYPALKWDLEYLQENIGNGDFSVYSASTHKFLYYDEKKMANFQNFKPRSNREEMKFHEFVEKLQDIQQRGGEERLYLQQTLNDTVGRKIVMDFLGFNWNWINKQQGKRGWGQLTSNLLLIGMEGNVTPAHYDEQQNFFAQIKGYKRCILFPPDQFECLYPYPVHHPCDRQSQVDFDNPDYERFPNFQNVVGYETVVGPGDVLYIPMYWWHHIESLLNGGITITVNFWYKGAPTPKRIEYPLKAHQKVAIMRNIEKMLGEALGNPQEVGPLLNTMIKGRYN

COC(=O)CNC(=O)C(=O)OC [DMOG, dimethyloxalylglycine]
Relative increase in total erythroblast output per BFU-E (BFU-E cells [1]; [6]): 2.5 fold | Enhancement of BFU-E proliferation by DMOG (BFU-E cells [1]; 333 μM DMOG with 10 nM Dex): 10 fold | Increase by DMOG of BFU-E proliferation in the presence of Dex (BFU-E cells [1]; 333 μM DMOG with 100 nM Dex versus Dex alone): 7.3 fold | Increase of total number of cells after the first three days (BFU-E cells [1]; CD24 and CD71 10% low BFU-E cells, 100 nM Dex and/or 333 μM DMOG): remained constant | Total cell expansion from 1000 "BFU-E" cells, liquid culture (BFU-E cells [1]; CD24 and CD71 10% low BFU-E cells, SFELE, 100 nM Dex and/or 333 μM DMOG, day 1): 4,200 | Total cell expansion from 1000 "BFU-E" cells, liquid culture (BFU-E cells [1]; CD24 and CD71 10% low BFU-E cells, SFELE, 100 nM Dex and/or 333 μM DMOG, day 2): 26,000 | Total cell expansion from 1000 "BFU-E" cells, liquid culture (BFU-E cells [1]; CD24 and CD71 10% low BFU-E cells, SFELE, 100 nM Dex and/or 333 μM DMOG, day 3): 130,000 | Total cell expansion from 1000 "BFU-E" cells, liquid culture (BFU-E cells [1]; CD24 and CD71 10% low BFU-E cells, SFELE, 100 nM Dex and/or 333 μM DMOG, day 4): 430,000 | Total cell expansion from 1000 "BFU-E" cells, liquid culture (BFU-E cells [1]; CD24 and CD71 10% low BFU-E cells, SFELE, 100 nM Dex and/or 333 μM DMOG, day 5): 820,000 | Total cell expansion from 1000 "BFU-E" cells, liquid culture (BFU-E cells [1]; CD24 and CD71 10% low BFU-E cells, SFELE, 100 nM Dex and/or 333 μM DMOG, day 6): 890,000 | Total cell expansion from 1000 "BFU-E" cells, liquid culture (BFU-E cells [1]; CD24 and CD71 10% low BFU-E cells, SFELE, 100 nM Dex and/or 333 μM DMOG, day 7): 1,200,000 | Total cell expansion from 1000 "BFU-E" cells, liquid culture (BFU-E cells [1]; CD24 and CD71 10% low BFU-E cells, SFELE, 100 nM Dex and/or 333 μM DMOG, day 8): 1,200,000 | Increase of proliferation of sorted BFU-E cells (BFU-E cells [1]; CD71 and CD24a 10% low cells, SFELE, 100 nM Dex and/or 333 μM DMOG, versus no additions): 2 fold | Increase of proliferation of sorted CFU-E cells (CFU-E cells): do not significantly increase proliferation | Relative increase in CFU-E output per BFU-E (BFU-E cells [2]; [6]): 2.1 fold | Total colony numbers from 1,000 "BFU-E" cells: CFU-E 1 cluster (BFU-E cells [2]; day 0 (before culture)): 30 (±11) | Total colony numbers from 1,000 "BFU-E" cells: large BFU-E >20 clusters (BFU-E cells [2]; day 0 (before culture)): 423 (±31) | Total colony numbers from 1,000 "BFU-E" cells: small BFU-E 5-20 clusters (BFU-E cells [2]; day 0 (before culture)): 262 (±64) | Total colony numbers from 1,000 "BFU-E" cells: CFU-E 1 cluster (BFU-E cells [2]; day 1): 637 (±227) | Total colony numbers from 1,000 "BFU-E" cells: large BFU-E >20 clusters (BFU-E cells [2]; day 1): 428 (±72) | Total colony numbers from 1,000 "BFU-E" cells: small BFU-E 5-20 clusters (BFU-E cells [2]; day 1): 1,284 (±683) | Total colony numbers from 1,000 "BFU-E" cells: CFU-E 1 cluster (BFU-E cells [2]; day 2): 6,991 (±1,226) | Total colony numbers from 1,000 "BFU-E" cells: large BFU-E >20 clusters (BFU-E cells [2]; day 2): 217 (±33) | Total colony numbers from 1,000 "BFU-E" cells: small BFU-E 5-20 clusters (BFU-E cells [2]; day 2): 3,232 (±1,416) | Total colony numbers from 1,000 "BFU-E" cells: CFU-E 1 cluster (BFU-E cells [2]; day 3): 23,685 (±5,919) | Total colony numbers from 1,000 "BFU-E" cells: large BFU-E >20 clusters (BFU-E cells [2]; day 3): 156 (±69) | Total colony numbers from 1,000 "BFU-E" cells: small BFU-E 5-20 clusters (BFU-E cells [2]; day 3): 4,399 (±2,039) | Total colony numbers from 1,000 "BFU-E" cells: CFU-E 1 cluster (BFU-E cells [2]; day 4): 27,530 (±13,756) | Total colony numbers from 1,000 "BFU-E" cells: CFU-E 1 cluster (BFU-E cells [2]; day 5): 26,730 (±9,557) | Total colony numbers from 1,000 "BFU-E" cells: large BFU-E >20 clusters (BFU-E cells [2]; day 5): 0 | Total colony numbers from 1,000 "BFU-E" cells: small BFU-E 5-20 clusters (BFU-E cells [2]; day 5): 1,000 (±365) | Total colony numbers from 1,000 "BFU-E" cells: CFU-E 1 cluster (BFU-E cells [2]; day 6): 9,598 (±8,627) | BFU-Es per plated BFU-E (BFU-E cells [2]; [7]): 4.8 | CFU-Es per plated BFU-E (BFU-E cells [2]; [7]): 24 | CFU-E colonies (BFU-E cells [3]): 21 (±11) colonies per 1000 plated cells | CFU-G/M/Meg colonies (BFU-E cells [3]): 5 (±6) colonies per 1000 plated cells | GEMM colonies (BFU-E cells [3]): 0 colonies per 1000 plated cells | large BFU-E colonies (BFU-E cells [3]): 164 (±23) colonies per 1000 plated cells | small BFU-E colonies (BFU-E cells [3]): 243 (±30) colonies per 1000 plated cells | Effect on proliferation of bone marrow cells ([4]; 333 μM DMOG alone, 1 nM and 100 nM Dex): little if any effect | Enhancement of proliferation by DMOG above the effect of Dex ([4]; 1 nM Dex): 2.1 fold | Enhancement of proliferation by DMOG above the effect of Dex ([4]; 10 nM Dex (so in the source)): 2.4 fold | Erythroblasts formed relative to cultures with Dex alone [5]: ~10 times

O=C(O)C(=O)N[C@H](Cc1ccccc1)C(=O)O [N-oxalyl-d-phenylalanine]
Inhibition of FIH (FIH): inhibit the FIH | Inhibition of a HIF prolyl hydroxylase (HIF prolyl hydroxylase): not a HIF prolyl hydroxylase
